Here are results for 3 compounds from the SangsterLogP compilation.

The nature of this data set: method code SF-AS, from DOI: 10.1021/jm00089a008, PMID: 1317921. To be noted: pH 7.4.
One may read the logD as lipophilicity at a set pH, counting ionised and neutral species. A lower logD goes with lower lipophilicity. Consider `O=c1nc(/N=C/N2CCOCC2)ccn1C1CC(F)C(CO)O1` (stereo not drawn), for which the logD was -0.68.

With `CC(C)N(/C=N/c1ccn([C@H]2C[C@H](F)[C@@H](CO)O2)c(=O)n1)C(C)C`, the logD turned out to be 1.14.

`CC(C)N(/C=N/c1ccn([C@H]2CC[C@@H](CO)O2)c(=O)n1)C(C)C` registered a logD of 0.72.
